# Assay results reported in patent US20100184683A1, “ANTIBACTERIAL AND ANTIFUNGAL PEPTIDES” (C3 JIAN, INC., priority 2009, published 2010).
# Read-outs that look alike come from different tables or passages of the source. Ends that are not written are not given here. Peptide text beside a SMILES is read from it.
# Legend:
# [1] = tested on: T. rubrum; format: cell-based, Trichophyton rubrum
# Experimental: (§1) In certain embodiments the MIC assays are performed as described herein in the Examples. For each organism, the media and growth conditions utilized is detailed in Table 8.
# (§2) In certain embodiments the MIC assays are performed as follows: For each organism, the media and growth conditions utilized is detailed in Table 8.
# [2] = tested on: C. albicans; format: cell-based, Candida albicans
# Experimental: as §1, §2
# [3] = tested on: A. baumannii; format: cell-based, Acinetobacter baumannii
# Experimental: as §1, §2
# [4] = tested on: C. difficile; format: cell-based, Clostridium difficile
# Experimental: as §1, §2
# [5] = tested on: B. subtilis; format: cell-based, Bacillus subtilis; conditions: B. subtilis; BHI, 30° C., aerobic; inoculum 10^5 CFU/ml; 18-24 h or 48 h
# Experimental: as §1, §2
# [6] = tested on: S. mutans; format: cell-based, Streptococcus mutans
# Experimental: as §1, §2
# [7] = tested on: P. gingivalis; format: cell-based, Porphyromonas gingivalis
# Experimental: as §1, §2
# [8] = tested on: A. naeslundii; format: cell-based, Actinomyces naeslundii
# Experimental: as §1, §2
# [9] = tested on: S. epidermidis; format: cell-based
# Experimental: as §1, §2
# [10] = tested on: MRSA; format: cell-based, Methicillin-resistant Staphylococcus aureus; conditions: MRSA; BHI supplemented with 2% glucose, 37° C., aerobic; inoculum 10^5 CFU/ml; 18-24 h or 48 h
# Experimental: as §1, §2
# [11] = tested on: A. niger; format: cell-based, Aspergillus niger
# Experimental: as §1, §2
compound,measurement,setting,value
CC[C@H](C)[C@H](NC(=O)[C@H](CCCNC(=N)N)NC(=O)[C@H](C)NC(=O)[C@@H]1CCCN1C(=O)[C@H](Cc1c[nH]c2ccccc12)NC(=O)[C@H](CC(C)C)NC(=O)[C@H](CCCNC(=N)N)NC(=O)[C@H](CCCCN)NC(=O)[C@@H](N)Cc1c[nH]c2ccccc12)C(=O)N[C@@H](CC(C)C)C(=O)N[C@@H](C)C(=O)NCC(=O)N[C@@H](Cc1c[nH]cn1)C(=O)N[C@@H](CO)C(=O)N[C@@H](CCCNC(=N)N)C(=O)N[C@@H](CCCNC(=N)N)C(=O)N[C@@H](CCCNC(=N)N)C(=O)N[C@@H](CCSC)C(=O)N[C@@H](CCCNC(=N)N)C(=O)N[C@@H](Cc1c[nH]c2ccccc12)C(=O)N[C@@H](CCSC)C(=O)N[C@H](C(=O)N[C@H](C(=O)N[C@@H](Cc1c[nH]c2ccccc12)C(=O)N[C@@H](CCCNC(=N)N)C(=O)N[C@@H](Cc1ccc(O)cc1)C(=O)N[C@@H](Cc1ccccc1)C(=O)N[C@@H](C)C(=O)N[C@@H](C)C(=O)N[C@H](C(=O)O)[C@@H](C)O)C(C)C)C(C)C [PF-C021] (H-WKRLWPARILAGHSRRRMRWMVVWRYFAAT-OH; N-terminus and C-terminus assumed),MIC,[1],50 µM
same,MIC,[2],50 µM
CC[C@H](C)[C@H](NC(=O)[C@H](CCC(=O)O)NC(=O)[C@H](CCCCN)NC(=O)[C@@H](NC(=O)[C@H](CCCCN)NC(=O)[C@H](CCC(=O)O)NC(=O)[C@H](CC(C)C)NC(=O)[C@@H](NC(=O)[C@H](CC(=O)O)NC(=O)[C@@H](NC(=O)[C@H](CCC(N)=O)NC(=O)[C@H](CCCCN)NC(=O)[C@H](CCCCN)NC(=O)[C@H](CC(N)=O)NC(=O)[C@@H](N)CCCCN)[C@@H](C)O)[C@@H](C)CC)C(C)C)C(=O)N[C@@H](CC(C)C)C(=O)N[C@@H](CC(=O)O)C(=O)N[C@@H](CCCCN)C(=O)N[C@@H](CCCCN)C(=O)N[C@@H](CCCCN)C(=O)N[C@@H](CCCCN)C(=O)N[C@H](C(=O)N[C@@H](CCCCN)C(=O)N[C@@H](CO)C(=O)N[C@H](C(=O)NCC(=O)N[C@@H](CCC(N)=O)C(=O)N[C@@H](CCCCN)C(=O)N[C@@H](CC(C)C)C(=O)N[C@@H](Cc1ccc(O)cc1)C(=O)O)C(C)C)[C@@H](C)O [PF-538] (H-KNKKQTDILEKVKEILDKKKKTKSVGQKLY-OH; N-terminus and C-terminus assumed),MIC,[3],25 µM
same,MIC,[4],25 µM
FELVDWLETNLGKILKSKSA [PF-522],MIC,"[4]; C. difficile, BHIS, 37° C., anaerobic, inoculum 10^5 CFU/ml, 18-24 h or 48 h",25 µM
WSRVPGHSDTGWKVWHRW [PF-547],MIC,"[1]; T. rubrum, Potato Dextrose Agar, 25° C., aerobic, inoculum 10^5 CFU/ml, 18-24 h or 48 h",25 µM
same,MIC,[5],25 µM
same,MIC,"[6]; S. mutans, TH supplemented with 1% sucrose, 37° C., anaerobic, inoculum 10^5 CFU/ml, 18-24 h or 48 h",12.5 µM
CC[C@H](C)[C@H](N)C(=O)N[C@@H](CC(C)C)C(=O)N[C@@H](CC(N)=O)C(=O)N[C@@H](CCCCN)C(=O)N[C@@H](CCCCN)C(=O)N1CCC[C@H]1C(=O)N[C@@H](CCCCN)C(=O)N[C@@H](CC(C)C)C(=O)N1CCC[C@H]1C(=O)N[C@@H](CC(C)C)C(=O)N[C@@H](Cc1c[nH]c2ccccc12)C(=O)N[C@@H](CCCCN)C(=O)N[C@@H](CC(C)C)C(=O)NCC(=O)N[C@@H](CCCCN)C(=O)N[C@@H](CC(N)=O)C(=O)N[C@@H](Cc1ccc(O)cc1)C(=O)N[C@@H](Cc1ccccc1)C(=O)N[C@@H](CCCNC(=N)N)C(=O)N[C@@H](CCCNC(=N)N)C(=O)N[C@@H](Cc1ccccc1)C(=O)N[C@@H](Cc1ccc(O)cc1)C(=O)N[C@H](C(=O)N[C@@H](CC(C)C)C(=O)N1CCC[C@H]1C(=O)N[C@H](C(=O)N[C@@H](Cc1ccccc1)C(=O)N[C@@H](CC(C)C)C(=O)N[C@@H](C)C(=O)O)[C@@H](C)O)C(C)C [PF-C287] (H-ILNKKPKLPLWKLGKNYFRRFYVLPTFLA-OH; N-terminus and C-terminus assumed),MIC,[7],50 µM
same,MIC,[2],50 µM
same,MIC,[8],25 µM
MPVSKKRYMLSSAYATALGICYGQVATDEKESEITAIPDLLDYLSVEEYLL [PF-C163],MIC,[7],50 µM
same,MIC,[9],50 µM
same,MIC,[8],50 µM
CC[C@H](C)[C@H](NC(=O)[C@H](CO)NC(=O)[C@H](CC(C)C)NC(=O)[C@H](CCSC)NC(=O)[C@H](CC(C)C)NC(=O)[C@H](CCC(=O)O)NC(=O)CNC(=O)[C@H](CCCCN)NC(=O)[C@H](Cc1ccc(O)cc1)NC(=O)[C@H](CCC(=O)O)NC(=O)[C@H](CCCCN)NC(=O)[C@@H](NC(=O)[C@@H](NC(=O)[C@@H](NC(=O)[C@H](CCCCN)NC(=O)[C@H](CCCNC(=N)N)NC(=O)[C@H](CC(C)C)NC(=O)[C@@H](NC(=O)[C@H](CCCCN)NC(=O)[C@H](Cc1ccccc1)NC(=O)[C@H](CCCCN)NC(=O)[C@@H](N)CO)C(C)C)[C@@H](C)CC)[C@@H](C)CC)[C@@H](C)CC)C(=O)N[C@@H](CCC(N)=O)C(=O)N[C@@H](CCCCN)C(=O)N[C@@H](CCC(N)=O)C(=O)N[C@@H](CCCNC(=N)N)C(=O)O [PF-530] (H-SKFKVLRKIIIKEYKGELMLSIQKQR-OH; N-terminus and C-terminus assumed),MIC,[3],25 µM
CC[C@H](C)[C@H](NC(=O)CNC(=O)[C@@H](N)CCSC)C(=O)N[C@H](C(=O)N[C@@H](C)C(=O)NCC(=O)N[C@H](C(=O)N[C@H](C(=O)N[C@@H](CCCCN)C(=O)N[C@@H](Cc1ccccc1)C(=O)N[C@H](C(=O)N[C@@H](CCCCN)C(=O)NCC(=O)N[C@@H](CC(C)C)C(=O)N[C@H](C(=O)N[C@@H](CCC(=O)O)C(=O)N[C@@H](CCCCN)C(=O)N[C@@H](Cc1ccccc1)C(=O)N[C@H](C(=O)NCC(=O)N[C@@H](CCCCN)C(=O)O)[C@@H](C)O)[C@@H](C)CC)[C@@H](C)CC)[C@@H](C)CC)[C@@H](C)CC)[C@@H](C)CC [PF-006],MIC,[5],25 µM
same,MIC,[10],50 µM
same,MIC,"[3]; A. baumannii, LB, 30° C., anaerobic, inoculum 10^5 CFU/ml, 18-24 h or 48 h",50 µM
CC[C@H](C)[C@H](NC(=O)[C@H](CCCNC(=N)N)NC(=O)[C@@H]1CCCN1C(=O)[C@H](CCC(=O)O)NC(=O)[C@H](CC(C)C)NC(=O)[C@@H]1CCCN1C(=O)[C@H](CC(=O)O)NC(=O)[C@@H](N)CC(C)C)C(=O)N[C@@H](C)C(=O)N1CCC[C@H]1C(=O)N1CCC[C@H]1C(=O)NCC(=O)N[C@@H](CC(=O)O)C(=O)N[C@@H](CCCNC(=N)N)C(=O)N[C@@H](CO)C(=O)N[C@@H](Cc1c[nH]cn1)C(=O)N[C@@H](CCC(N)=O)C(=O)NCC(=O)N[C@@H](C)C(=O)N1CCC[C@H]1C(=O)N[C@@H](C)C(=O)N[C@@H](CS)C(=O)N[C@@H](Cc1c[nH]cn1)C(=O)N[C@@H](CCCNC(=N)N)C(=O)N[C@@H](CC(=O)O)C(=O)N1CCC[C@H]1C(=O)N[C@@H](CC(C)C)C(=O)N[C@@H](CCCNC(=N)N)C(=O)NCC(=O)N[C@@H](CCCNC(=N)N)C(=O)N[C@@H](CO)C(=O)N[C@@H](C)C(=O)N[C@@H](CCCNC(=N)N)C(=O)N[C@@H](CC(=O)O)C(=O)N[C@@H](C)C(=O)N[C@@H](CCC(=O)O)C(=O)N[C@@H](CCCNC(=N)N)C(=O)O [PF-C019] (H-LDPLEPRIAPPGDRSHQGAPACHRDPLRGRSARDAER-OH; N-terminus and C-terminus assumed),MIC,[1],50 µM
same,MIC,[6],25 µM
same,MIC,[11],50 µM
CC[C@H](C)[C@H](NC(=O)[C@H](CCCCN)NC(=O)[C@H](C)NC(=O)[C@H](Cc1ccccc1)NC(=O)[C@@H](NC(=O)[C@H](C)NC(=O)[C@H](CC(C)C)NC(=O)[C@H](CO)NC(=O)[C@@H](N)CC(C)C)[C@@H](C)O)C(=O)N[C@@H](Cc1ccccc1)C(=O)N[C@@H](CCSC)C(=O)N[C@H](C(=O)N[C@@H](CCCNC(=N)N)C(=O)N[C@@H](CO)C(=O)N[C@@H](CC(N)=O)C(=O)N[C@@H](Cc1c[nH]c2ccccc12)C(=O)N[C@@H](CO)C(=O)N[C@@H](CC(C)C)C(=O)N[C@@H](CCCCN)C(=O)N[C@@H](CCCNC(=N)N)C(=O)N[C@@H](Cc1ccccc1)C(=O)N[C@@H](CC(N)=O)C(=O)N[C@@H](CCCNC(=N)N)C(=O)N[C@@H](CC(C)C)C(=O)O)[C@@H](C)O [PF-278] (H-LSLATFAKIFMTRSNWSLKRFNRL-OH; N-terminus and C-terminus assumed),MIC,[1],50 µM
same,MIC,[9],50 µM
same,MIC,[2],50 µM
